According to patent publication US5935829A, “Mutation assays involving blood cells that metabolize toxic substances” (priority 1992, dated 1999):
Read-outs that look alike come from different tables or passages of the source.

How the values were obtained:
[1] = test system: AHH-1 cells
[2] = in vitro; settings: human, ahh-1 cells, RELATIVE SURVIVAL; for viability at 48 h, 5000 µM: 5 mM × 48 hours; for viability at 48 h, 14000 µM: 14 mM × 48 hours; for viability at 48 h, 28000 µM: 28 mM × 48 hours; for viability at 48 h, 300 µM: 300 μM × 48 hours
[3] = test system: 6-TG^r AHH-1 cells; test: in vitro; format: cell-based, human; settings: varying concentrations of ICR-191
Source text: (§1) Preferential survival during toxic treatment tested by exposing two sets of cells to varying concentrations of ICR-191.

[4] = in vitro; format: cell-based, human; settings: human, 6-tg resistant ahh-1 cells, 6-TG^r AHH-1 cells, read-out: Relative Survival
Source text: as §1

[5] = test system: AHH-1 cells; test: Phenotypic expression of ICR-191 induced mutation; format: cell-based, human
Experimental: AHH-1 cell cultures were contacted with ICR-191 (Polysciences Inc, Warrington Pa.) which is a known mutagen comprising an acridine mustard derivative, at varying concentrations ranging up to 1.0 μM, for 24 hours. The cultures were resuspended in growth medium and allowed to grow. At different times after treatment, the cells were contacted with 6-TG to determine the mutant fraction.

[6] = in vitro; format: cell-based; settings: human, ahh-1 cells, read-out: Relative Survival
Source text: as §1

[7] = 10 μM × 48 hours, induction BNF
[8] = 100 μM × 48 hours, induction BNF
[9] = 100 μM × 48 hours, induction none
[10] = 600 μM × 48 hours, induction none

**Q.** With CN(C)N=O [DMN, dimethylnitrosamine] as the compound, how does the “MUTANT FRACTION × 10^6, MEAN ± STD.DEV.” value ([1]; 5 mM × 48 hours, induction BNF) read?
**A.** 4.0 ± 0.7 × 10^6

**Q.** And the “MUTANT FRACTION × 10^6, MEAN ± STD.DEV.” value ([1]; 5 mM × 48 hours, induction none)?
**A.** 3.5 ± 0.7 × 10^6

**Q.** What about the “MUTANT FRACTION × 10^6, MEAN ± STD.DEV.” value ([1]; 14 mM × 48 hours, induction BNF) of the same compound?
**A.** 8.0 ± 2.0 × 10^6

**Q.** And the “MUTANT FRACTION × 10^6, MEAN ± STD.DEV.” value ([1]; 14 mM × 48 hours, induction none)?
**A.** 3.5 ± 0.7 × 10^6

**Q.** And the “MUTANT FRACTION × 10^6, MEAN ± STD.DEV.” value ([1]; 28 mM × 48 hours, induction BNF)?
**A.** 8.6 ± 2.1 × 10^6

**Q.** And the “MUTANT FRACTION × 10^6, MEAN ± STD.DEV.” value ([1]; 28 mM × 48 hours, induction none)?
**A.** 4.1 ± 1.3 × 10^6

**Q.** What about the viability at 48 h, 5000 µM ([2]; induction BNF) of the same compound?
**A.** 112%

**Q.** And the viability at 48 h, 5000 µM ([2]; induction none)?
**A.** 98%

**Q.** What about the viability at 48 h, 14000 µM ([2]; induction BNF) of the same compound?
**A.** 100%

**Q.** What about the viability at 48 h, 14000 µM ([2]; induction none) of the same compound?
**A.** 92%

**Q.** What about the viability at 48 h, 28000 µM ([2]; induction BNF) of the same compound?
**A.** 87%

**Q.** And the viability at 48 h, 28000 µM ([2]; induction none)?
**A.** 81%

**Q.** For CCOS(C)(=O)=O [EMS, ethyl methanesulfonate], which “MUTANT FRACTION × 10^6, MEAN ± STD.DEV.” value ([1]; 59 μM × 24 hours) is on record?
**A.** 6.3 ± 1.3 × 10^6

**Q.** And the “MUTANT FRACTION × 10^6, MEAN ± STD.DEV.” value ([1]; 100 μM × 24 hours)?
**A.** 20 ± 5 × 10^6

**Q.** What about the viability at 24 h, 59 µM ([2]; 59 μM × 24 hours) of the same compound?
**A.** 48%

**Q.** What about the viability at 24 h, 100 µM ([2]; 100 μM × 24 hours) of the same compound?
**A.** 36%

**Q.** What does the source list for c1ccc2c(c1)-c1cccc3cccc-2c13 [Fla, fluoranthene]?
**A.** RELATIVE SURVIVAL ([1]; human, ahh-1 cells, 48 h, 40 µM): 0.70; viability at 48 h, 10 µM [2]: 105%; viability at 48 h, 20 µM [2]: 93%; viability at 48 h, 40 µM [2]: 75%; viability at 48 h, 50 µM [2]: 67%; viability at 48 h, 100 µM [2]: 45%

**Q.** With COc1ccc2nc3cc(Cl)ccc3c(NCCCNCCCl)c2c1 [ICR-191] as the compound, how does the “MUTANT FRACTION × 10^6, MEAN ± STD.DEV.” value ([1]; 0.63 μM × 24 hours) read?
**A.** 62 ± 11 × 10^6

**Q.** And the “MUTANT FRACTION × 10^6, MEAN ± STD.DEV.” value ([1]; 1.25 μM × 24 hours)?
**A.** 116 ± 17 × 10^6

**Q.** And the “MUTANT FRACTION × 10^6, MEAN ± STD.DEV.” value ([1]; 2.5 μM × 24 hours)?
**A.** 147 ± 28 × 10^6

**Q.** And the viability at 24 h, 0.63 µM ([2]; 0.63 μM × 24 hours)?
**A.** 65%

**Q.** What about the viability at 24 h, 1.25 µM ([2]; 1.25 μM × 24 hours) of the same compound?
**A.** 48%

**Q.** And the viability at 24 h, 2.5 µM ([2]; 2.5 μM × 24 hours)?
**A.** 13%

**Q.** And the “difference in survival rate between non-resistant and 6-TG resistant AHH-1 cells” value [3]?
**A.** did not reach the level of statistical significance

**Q.** What about the viability at 24 h ([4]; 0.25 μg/ml at 24 hrs) of the same compound?
**A.** 48%

**Q.** What about the viability at 24 h ([4]; 0.5 μg/ml at 24 hrs) of the same compound?
**A.** 20%

**Q.** What about the viability at 24 h ([4]; 1.0 μg/ml at 24 hrs) of the same compound?
**A.** 14%

**Q.** And the “time to full expression of induced mutation” value ([5]; ICR-191 up to 1.0 μM, 24 hours)?
**A.** ≤ 6 days

**Q.** And the “mutant fraction stability after full expression” value ([5]; up to 14 days)?
**A.** remained relatively stable

**Q.** What about the viability at 24 h ([6]; 0.25 μg/ml at 24 hrs) of the same compound?
**A.** 65%

**Q.** And the viability at 24 h ([6]; 0.5 μg/ml at 24 hrs)?
**A.** 48%

**Q.** And the viability at 24 h ([6]; 1.0 μg/ml at 24 hrs)?
**A.** 13%

**Q.** With C/C=C(/C)C(=O)O[C@H]1CCN2CC=C(COC(=O)[C@@](O)([C@H](C)OC)C(C)(C)O)[C@H]12 [LSCP, lasiocarpine] as the compound, how does the “MUTANT FRACTION × 10^6, MEAN ± STD.DEV.” value [1, 7] read?
**A.** 3.9 ± 1 × 10^6

**Q.** What about the “MUTANT FRACTION × 10^6, MEAN ± STD.DEV.” value [1, 8] of the same compound?
**A.** 4.3 ± 1 × 10^6

**Q.** And the “MUTANT FRACTION × 10^6, MEAN ± STD.DEV.” value [1, 9]?
**A.** 5.4 ± 0.6 × 10^6

**Q.** What about the “MUTANT FRACTION × 10^6, MEAN ± STD.DEV.” value ([1]; 300 μM × 48 hours, induction BNF) of the same compound?
**A.** 12.7 ± 2.1 × 10^6

**Q.** What about the “MUTANT FRACTION × 10^6, MEAN ± STD.DEV.” value ([1]; 300 μM × 48 hours, induction none) of the same compound?
**A.** 6.2 ± 1.3 × 10^6

**Q.** What about the “MUTANT FRACTION × 10^6, MEAN ± STD.DEV.” value [1, 10] of the same compound?
**A.** 6.0 ± 1.4 × 10^6

**Q.** And the viability at 48 h, 10 µM [2, 7]?
**A.** 103%

**Q.** And the viability at 48 h, 100 µM [2, 8]?
**A.** 91%

**Q.** What about the viability at 48 h, 100 µM [2, 9] of the same compound?
**A.** 130%

**Q.** And the viability at 48 h, 300 µM ([2]; induction BNF)?
**A.** 81%

**Q.** What about the viability at 48 h, 300 µM ([2]; induction none) of the same compound?
**A.** 89%

**Q.** What about the viability at 48 h, 600 µM [2, 10] of the same compound?
**A.** 82%
